Source: patent US20120101095A1, “ALKOXY-THIENOPYRIMIDINES AS TGF-BETA RECEPTOR KINASE MODULATORS” (priority 2009, published 2012)

Target: T1, GST-ALK5 (Homo sapiens, UniProt P36897)
T1 sequence (P36897 34-503): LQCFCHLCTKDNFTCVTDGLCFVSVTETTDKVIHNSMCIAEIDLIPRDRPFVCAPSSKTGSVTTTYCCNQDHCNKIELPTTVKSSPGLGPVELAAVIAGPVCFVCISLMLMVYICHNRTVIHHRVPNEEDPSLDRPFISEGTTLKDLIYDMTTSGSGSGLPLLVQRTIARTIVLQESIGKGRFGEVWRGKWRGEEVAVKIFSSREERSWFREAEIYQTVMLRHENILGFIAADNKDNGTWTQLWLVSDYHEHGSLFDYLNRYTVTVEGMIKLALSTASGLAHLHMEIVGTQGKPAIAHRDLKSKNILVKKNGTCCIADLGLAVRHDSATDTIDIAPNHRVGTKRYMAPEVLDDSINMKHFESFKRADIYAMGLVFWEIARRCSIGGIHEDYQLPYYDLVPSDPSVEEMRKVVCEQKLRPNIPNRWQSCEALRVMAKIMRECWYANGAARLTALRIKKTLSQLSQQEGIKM
Test: In-vitro (enzyme) kinase assay, 384-well flashplate, GST-SMAD2 substrate
Assay type: biochemical
Details: 31.2 nM GST-ALK5, 439 nM GST-SMAD2, 3 mM ATP, 30° C., 45 min
Description: In-Vitro (Enzyme) Assay for Determination of the Efficacy of Inhibitors of the Inhibition of TGF-Beta-Mediated Effects
The kinase assay was carried out as 384-well flashplate assay. 31.2 nM of GST-ALK5, 439 nM of GST-SMAD2 and 3 mM of ATP (with 0.3 μCi of ^33P-ATP/well) were incubated in a total volume of 35 μl (20 mM of HEPES, 10 mM of MgCl2, 5 mM of MnCl2, 1 mM of DTT, 0.1% of BSA, pH 7.4) without or with test substance (5-10 concentrations) at 30° C. for 45 min. The reaction was stopped using 25 μl of 200 mM EDTA solution, filtered with suction at room temperature after 30 min, and the wells were washed with 3 times 100 μl of 0.9% NaCl solution. Radioactivity was measured in the TopCount. The IC50 values were calculated using RS1 (Table 1). Above and below, all temperatures were indicated in ° C.

IC50	Structure (SMILES)
< 100 nM	NC(=O)c1sc2nc(OCCN3CCOCC3=O)nc(-c3cccc(Cl)c3)c2c1N [No 55, 5-Amino-4-(3-chloro-phenyl)-2-[2-(3-oxo-morpholin-4-yl)-ethoxy]-thieno[2,3-d]pyrimidine-6-carboxylic acid amide]
100 to 500 nM	NC(=O)c1sc2nc(OC[C@H](O)CO)nc(-c3cccc(Cl)c3)c2c1N [No 50, 5-Amino-4-(3-chloro-phenyl)-2-((R)-2,3-dihydroxy-propoxy)-thieno[2,3-d]pyrimidine-6-carboxylic acid amide]
100 to 500 nM	NC(=O)CCCOc1nc(-c2cccc(Cl)c2)c2c(N)c(C(N)=O)sc2n1 [No 69, 5-Amino-2-(3-carbamoyl-propoxy)-4-(3-chloro-phenyl)-thieno[2,3-d]pyrimidine-6-carboxylic acid amide]
100 to 500 nM	Cc1ccc(-c2nc(OCc3cccnc3)nc3sc(C(N)=O)c(N)c23)o1 [No 31, 5-Amino-4-(5-methyl-furan-2-yl)-2-(pyridin-3-ylmethoxy)-thieno[2,3-d]pyrimidine-6-carboxylic acid amide]
< 100 nM	Cc1cccc(-c2nc(OCc3ccn(C)n3)nc3sc(C(N)=O)c(N)c23)n1 [No 28, 5-Amino-2-(1-methyl-1H-pyrazol-3-ylmethoxy)-4-(6-methyl-pyridin-2-yl)-thieno[2,3-d]pyrimidine-6-carboxylic acid amide]
500 to 1000 nM	NC(=O)c1sc2nc(OCCO)nc(-c3cccc(C(F)(F)F)c3)c2c1N [No 15, 5-Amino-2-(2-hydroxy-ethoxy)-4-(3-trifluoromethyl-phenyl)-thieno[2,3-d]pyrimidine-6-carboxylic acid amide]
< 100 nM	NC(=O)c1sc2nc(OCCn3cccn3)nc(-c3cccc(Cl)c3)c2c1N [No 42, 5-Amino-4-(3-chloro-phenyl)-2-(2-pyrazol-1-yl-ethoxy)-thieno[2,3-d]pyrimidine-6-carboxylic acid amide]
< 100 nM	NC(=O)c1sc2nc(OCCN3CCCC3=O)nc(-c3cccc(Cl)c3)c2c1N [No 48, 5-Amino-4-(3-chloro-phenyl)-2-[2-(2-oxo-pyrrolidin-1-yl)-ethoxy]-thieno[2,3-d]pyrimidine-6-carboxylic acid amide]
100 to 500 nM	NC(=O)c1sc2nc(OC3CCC(O)C3)nc(-c3cccc(Cl)c3)c2c1N (centres unmarked) [No 64, 5-Amino-4-(3-chloro-phenyl)-2-(3-hydroxy-cyclopentyloxy)-thieno[2,3-d]pyrimidine-6-carboxylic acid amide]
100 to 500 nM	NC(=O)c1sc2nc(OCCn3ccnc3)nc(-c3cccc(Cl)c3)c2c1N [No 43, 5-Amino-4-(3-chloro-phenyl)-2-(2-imidazol-1-yl-ethoxy)-thieno[2,3-d]pyrimidine-6-carboxylic acid amide]
100 to 500 nM	COc1nc(-c2ccc(C)s2)c2c(N)c(C(N)=O)sc2n1 [No 23, 5-Amino-2-methoxy-4-(5-methyl-thiophen-2-yl)-thieno[2,3-d]pyrimidine-6-carboxylic acid amide]
500 to 1000 nM	COCCOc1nc(-c2cccc(C(F)(F)F)c2)c2c(N)c(C(N)=O)sc2n1 [No 16, 5-Amino-2-(2-methoxy-ethoxy)-4-(3-trifluoromethyl-phenyl)-thieno[2,3-d]pyrimidine-6-carboxylic acid amide]
100 to 500 nM	Cc1ccc(-c2nc(OCc3ccccn3)nc3sc(C(N)=O)c(N)c23)o1 [No 38, 5-Amino-4-(5-methyl-furan-2-yl)-2-(pyridin-2-ylmethoxy)-thieno[2,3-d]pyrimidine-6-carboxylic acid amide]
100 to 500 nM	Cc1ccc(-c2nc(O[C@@H](C)[C@H](C)O)nc3sc(C(N)=O)c(N)c23)o1 [No 36, 5-Amino-2-((1S,2S)-2-hydroxy-1-methyl-propoxy)-4-(5-methyl-furan-2-yl)-thieno[2,3-d]pyrimidine-6-carboxylic acid amide]
100 to 500 nM	NC(=O)c1sc2nc(OC[C@@H](O)CO)nc(-c3cccc(Cl)c3)c2c1N [No 18, 5-Amino-4-(3-chloro-phenyl)-2-((S)-2,3-dihydroxy-propoxy)-thieno[2,3-d]pyrimidine-6-carboxylic acid amide]

Continued, compound first:

Structure (SMILES)	IC50
Cc1ccc(-c2nc(OCc3ccncc3)nc3sc(C(N)=O)c(N)c23)o1 [No 30, 5-Amino-4-(5-methyl-furan-2-yl)-2-(pyridin-4-ylmethoxy)-thieno[2,3-d]pyrimidine-6-carboxylic acid amide]	500 to 1000 nM
COCc1cnn(CCOc2nc(-c3cccc(Cl)c3)c3c(N)c(C(N)=O)sc3n2)c1 [No 52, 5-Amino-4-(3-chloro-phenyl)-2-[2-(4-methoxymethyl-pyrazol-1-yl)-ethoxy]-thieno[2,3-d]pyrimidine-6-carboxylic acid amide]	100 to 500 nM
Cc1cccc(-c2nc(OCc3ccc(OCCN4CCOCC4)cc3)nc3sc(C(N)=O)c(N)c23)n1 [No 35, 5-Amino-4-(6-methyl-pyridin-2-yl)-2-[4-(2-morpholin-4-yl-ethoxy)-benzyloxy]-thieno[2,3-d]pyrimidine-6-carboxylic acid amide]	100 to 500 nM
NC(=O)c1sc2nc(OCC3CC3)nc(-c3cc4ccccc4s3)c2c1N [No 2]	> 1000 nM
C=C(C)CCOc1nc(-c2cccc(C(F)(F)F)c2)c2c(N)c(C(N)=O)sc2n1 [No 17, 5-Amino-2-(3-methyl-but-3-enyloxy)-4-(3-trifluoromethyl-phenyl)-thieno[2,3-d]pyrimidine-6-carboxylic acid amide]	100 to 500 nM
N#CCCOc1nc(-c2cccc(Cl)c2)c2c(N)c(C(N)=O)sc2n1 [No 72, 5-Amino-4-(3-chloro-phenyl)-2-(2-cyano-ethoxy)-thieno[2,3-d]pyrimidine-6-carboxylic acid amide]	< 100 nM
CNC(=O)CCCOc1nc(-c2cccc(Cl)c2)c2c(N)c(C(N)=O)sc2n1 [No 70, 5-Amino-4-(3-chloro-phenyl)-2-(3-methylcarbamoyl-propoxy)-thieno[2,3-d]pyrimidine-6-carboxylic acid amide]	100 to 500 nM
Cc1cccc(-c2nc(OCCn3cccn3)nc3sc(C(N)=O)c(N)c23)n1 [No 27, 5-Amino-4-(6-methyl-pyridin-2-yl)-2-(2-pyrazol-1-yl-ethoxy)-thieno[2,3-d]pyrimidine-6-carboxylic acid amide]	< 100 nM
COc1nc(-c2cccc(C(F)(F)F)c2)c2c(N)c(C(N)=O)sc2n1 [No 5, 5-Amino-2-methoxy-4-(3-trifluoromethyl-phenyl)-thieno[2,3-d]pyrimidine-6-carboxylic acid amide]	100 to 500 nM
NC(=O)c1sc2nc(OCCCCC3NC(=O)NC3=O)nc(-c3cccc(Cl)c3)c2c1N (centres unmarked) [No 78, 5-Amino-4-(3-chloro-phenyl)-2-[4-(2,5-dioxo-imidazolidin-4-yl)-butoxy]-thieno[2,3-d]pyrimidine-6-carboxylic acid amide]	< 100 nM
Cc1ccc(-c2nc(OCCO)nc3sc(C(N)=O)c(N)c23)o1 [No 21, 5-Amino-2-(2-hydroxy-ethoxy)-4-(5-methyl-furan-2-yl)-thieno[2,3-d]pyrimidine-6-carboxylic acid amide]	100 to 500 nM
NC(=O)c1sc2nc(OCC3CCCC3)nc(-c3cccc(C(F)(F)F)c3)c2c1N [No 8, 5-Amino-2-cyclopentylmethoxy-4-(3-trifluoromethyl-phenyl)-thieno[2,3-d]pyrimidine-6-carboxylic acid amide]	> 1000 nM
NC(=O)c1sc2nc(OC[C@@H]3CCC(=O)N3)nc(-c3cccc(Cl)c3)c2c1N [No 75, 5-Amino-4-(3-chloro-phenyl)-2-((S)-5-oxo-pyrrolidin-2-ylmethoxy)-thieno[2,3-d]pyrimidine-6-carboxylic acid amide]	100 to 500 nM
NC(=O)c1sc2nc(OCCO)nc(-c3cccc(Cl)c3)c2c1N [No 13, 5-Amino-4-(3-chloro-phenyl)-2-(2-hydroxy-ethoxy)-thieno[2,3-d]pyrimidine-6-carboxylic acid amide]	100 to 500 nM
Cc1ccc(-c2nc(OCc3cnn(C)c3)nc3sc(C(N)=O)c(N)c23)o1 [No 24, 5-Amino-4-(5-methyl-furan-2-yl)-2-(1-methyl-1H-pyrazol-4-ylmethoxy)-thieno[2,3-d]pyrimidine-6-carboxylic acid amide]	< 100 nM
Cc1ccc(-c2nc(OCCCn3cccn3)nc3sc(C(N)=O)c(N)c23)o1 [No 39, 5-Amino-4-(5-methyl-furan-2-yl)-2-(3-pyrazol-1-yl-propoxy)-thieno[2,3-d]pyrimidine-6-carboxylic acid amide]	100 to 500 nM
Cc1cccc(-c2nc(OCCCn3cccn3)nc3sc(C(N)=O)c(N)c23)n1 [No 49, 5-Amino-4-(6-methyl-pyridin-2-yl)-2-(3-pyrazol-1-yl-propoxy)-thieno[2,3-d]pyrimidine-6-carboxylic acid amide]	< 100 nM
